Reference: patent publication US11673876B2, “Substituted aminobenzyl heteroaryl compounds as EGFR and/or PI3K inhibitors” (Mekanistic Therapeutics LLC, priority 2020, dated 2023)
Converted amounts (≈) assume the structure as drawn.

Columns and labels:
PI3Ka = PI3Ka (Homo sapiens (Human), UniProt P42336); assay: Z'-LYTE / Adapta kinase assay, PI3Ka; type: biochemical; settings: for inhibition at 0.1 µM: read-out: PI3Ka % Inh. @ 100 nM
From the text: (§1) The Z′-LYTE® biochemical assay employs a fluorescence-based, coupled-enzyme format and is based on the differential sensitivity of phosphorylated and non-phosphorylated peptides to proteolytic cleavage (FIG. 6). The peptide substrate is labeled with two fluorophores one at each end—that make up a FRET pair. In the primary reaction, the kinase transfers the gamma-phosphate of ATP to a single tyrosine, serine or threonine residue in a synthetic FRET-peptide. In the secondary reaction, a site-specific protease recognizes and cleaves non-phosphorylated FRET-peptides. Phosphorylation of FRET-peptides suppresses cleavage by the Development Reagent. Cleavage disrupts FRET between the donor (i.e., coumarin) and acceptor (i.e., fluorescein) fluorophores on the FRET-peptide, whereas uncleaved, phosphorylated FRET-peptides maintain FRET. A ratiometric method, which calculates the ratio (the Emission Ratio) of donor emission to acceptor emission after excitation of the donor fluorophore at 400 nm, is used to quantitate reaction progress.
(§2) A significant benefit of this ratiometric method for quantitating reaction progress is the elimination of well-to-well variations in FRET-peptide concentration and signal intensities. As a result, the assay yields very high Z′-factor values (>0.7) at a low percent phosphorylation.
(§3) Both cleaved and uncleaved FRET-peptides contribute to the fluorescence signals and therefore to the Emission Ratio. The extent of phosphorylation of the FRET-peptide can be calculated from the Emission Ratio.
(§4) Enzyme: The ADAPTA universal kinase assay is a homogenous, fluorescent based immunoassay for the detection of ADP. In contrast to ATP depletion assays, the ADAPTA assay is extremely sensitive to ADP formation such that a majority of the signal change occurs in the first 10-20% conversion of ATP to ADP. This makes the ADAPTA universal kinase assay ideally suited for use with low activity kinases.
(§5) The principle of the ADAPTA universal kinase assay is outlined below. The assay itself can be divided into two phases: a kinase reaction phase, and an ADP detection phase. In the kinase reaction phase, all components required for the kinase reaction are added to the well, and the reaction is allowed to incubate for 60 minutes.
(§6) Z′-LYTE® Assay Conditions:
(§7) Test Compounds: The Test Compounds are screened in 1% DMSO (final) in the well. For 10 point titrations, 3-fold serial dilutions are conducted from the starting concentration.
(§8) Peptide/Kinase Mixtures: All Peptide/Kinase Mixtures are diluted to a 2× working concentration in the appropriate Kinase Buffer.
(§9) ATP Solution: All ATP Solutions are diluted to a 4× working concentration in Kinase Buffer (50 mM HEPES pH 7.5, 0.01% BRIJ-35, 10 mM MgCl2, 1 mM EGTA). ATP Km apparent is previously determined using a Z′-LYTE® assay.
(§10) Development Reagent Solution: The Development Reagent is diluted in Development Buffer. […]
(§11) 2.5 μL—4× Test Compound or 100 nL 100× plus 2.4 μL kinase buffer. 2. 5 μL—2× Peptide/Kinase Mixture. 3. 2.5 μL—4× ATP Solution. 4. 30-second plate shake. 5. 60-minute Kinase Reaction incubation at room temperature. 6. 5 μL—Development Reagent Solution. 7. 30-second plate shake. 8. 60-minute Development Reaction incubation at room temperature. 9.

EGFR = EGFR (Homo sapiens (Human), UniProt P00533); assay: Z'-LYTE / Adapta kinase assay, EGFR; type: biochemical; settings: for inhibition at 0.1 µM: read-out: EGFR % Inh. @ 100 nM
From the text: as §1, §2, §3, §4, §5, §6, §7, §8, §9, §10, §11

DNA-PK = DNA-PK (Homo sapiens (Human), UniProt P78527); assay: Z'-LYTE / Adapta kinase assay, DNA-PK; type: biochemical; settings: for inhibition at 0.1 µM: read-out: DNA-PK % Inh. @ 100 nM
From the text: as §1, §2, §3, §4, §5, §6, §7, §8, §9, §10, §11

[1] = Solubility determination (PBS 7.4, SIF, SGF); type: physicochemical; settings: simulated intestinal fluid (SIF), kinetic from dmso stock; simulated intestinal fluid pH 6.8, 25° C., 2 hours; read-out: Solubility SIF
Protocol: Preparation of stock solutions: The stock solutions of test compounds and control compound diclofenac were prepared in DMSO at the concentrations of 10 mM.
Simulated Gastric Fluid (SGF): An aqueous mixture including hydrochloric acid, sodium chloride, and pepsin (pH=1.2).
Simulated Intestinal Fluid (SIF): Prepared by dissolving 6.8 g of KH2PO4 into about 500 mL ultrapure water and adjust the solution to a pH 6.8 with 0.1 M NaOH. 10 g trypsin is then dissolved into ultrapure water. The two solutions are mixed well and diluted with ultrapure water to a final volume of 1000 mL.
485 μL of (SIF, SGF, PBS 7.4, FESSIF, or FESSGF) was added into each vial of the cap-less Solubility Sample plate. The assay was performed in duplicate. Add one stir stick to each vial and seal using a molded PTFE/Silicone plug. […] After completion of the 2 hours, plugs were removed and the stir sticks were removed using a big magnet, the samples from the Solubility Sample plate were transferred into the filter plate. Using the Vacuum Manifold, all the samples were filtered. Aliquot of 5 μL and 5 μL DMSO were taken from the filtrate followed by addition of 490 μL of a mixture of H2O and acetonitrile containing internal standard (1:1). A certain proportion of ultrapure water was used to dilute the diluent according to the peak shape. The dilution factor was changed according to the solubility values and the LC-MS signal response.
Preparation of 300 μM standards (STD): From the 10 mM DMSO STD plate, 6 μL was transferred into the remaining empty plate, and then 194 μL of DMSO was added to that plate to have a STD concentration of 300 μM. From the 300 μM DMSO STD plate, 5 μL DMSO STD and 5 μL SIF was transferred into the remaining empty plate, and then 490 μL of a mixture of H2O and acetonitrile containing internal standard (1:1) was added to that plate to have a final STD concentration of 3 μM. A certain proportion of ultrapure water was used to dilute the diluent according to the peak shape. The concentrations of the standard samples were changed according to the LC-MS signal response.
Procedure for sample analysis: The plate was placed into the well plate autosampler. The samples were evaluated by LC-MS/MS analysis.
Data analysis: All calculations were carried out using Microsoft Excel. The filtrate was analyzed and quantified against a standard of known concentration using LC coupled with mass spectral peak identification and quantitation. Solubility values of the test compound and control compound were calculated as follows: […]
Any value of the compounds that was not within the specified limits was rejected and the experiment was repeated.

Chain of EGFR (P00533 25-1210): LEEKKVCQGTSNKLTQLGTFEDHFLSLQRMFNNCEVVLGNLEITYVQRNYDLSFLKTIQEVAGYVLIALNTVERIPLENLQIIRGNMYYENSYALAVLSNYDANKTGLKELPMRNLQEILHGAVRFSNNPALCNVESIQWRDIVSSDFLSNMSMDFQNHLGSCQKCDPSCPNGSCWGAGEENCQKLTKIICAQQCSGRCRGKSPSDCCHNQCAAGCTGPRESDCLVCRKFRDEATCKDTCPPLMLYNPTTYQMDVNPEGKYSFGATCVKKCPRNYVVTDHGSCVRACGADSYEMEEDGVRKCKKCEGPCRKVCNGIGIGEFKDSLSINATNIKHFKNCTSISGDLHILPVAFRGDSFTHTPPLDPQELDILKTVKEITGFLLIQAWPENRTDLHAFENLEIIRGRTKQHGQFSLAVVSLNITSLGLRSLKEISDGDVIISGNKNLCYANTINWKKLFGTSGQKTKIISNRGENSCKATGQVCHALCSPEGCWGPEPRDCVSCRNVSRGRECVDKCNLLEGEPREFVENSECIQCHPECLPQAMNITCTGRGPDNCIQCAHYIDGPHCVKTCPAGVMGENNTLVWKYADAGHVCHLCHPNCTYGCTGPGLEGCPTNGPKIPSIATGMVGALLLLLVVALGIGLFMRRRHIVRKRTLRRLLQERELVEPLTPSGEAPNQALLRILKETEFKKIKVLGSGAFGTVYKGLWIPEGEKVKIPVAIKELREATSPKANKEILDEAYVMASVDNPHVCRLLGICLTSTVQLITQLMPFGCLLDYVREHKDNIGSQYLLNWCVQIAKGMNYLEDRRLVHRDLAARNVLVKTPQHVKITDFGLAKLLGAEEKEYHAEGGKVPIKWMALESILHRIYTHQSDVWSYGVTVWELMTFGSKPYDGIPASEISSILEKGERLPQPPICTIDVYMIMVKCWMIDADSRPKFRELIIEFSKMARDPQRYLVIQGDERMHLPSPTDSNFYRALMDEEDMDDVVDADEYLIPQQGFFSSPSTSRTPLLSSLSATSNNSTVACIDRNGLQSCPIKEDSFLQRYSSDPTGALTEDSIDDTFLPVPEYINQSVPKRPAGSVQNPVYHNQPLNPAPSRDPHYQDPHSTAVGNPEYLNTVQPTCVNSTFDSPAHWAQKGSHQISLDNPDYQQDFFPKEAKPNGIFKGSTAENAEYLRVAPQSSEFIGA
Chain of PI3Ka (P42336 whole entry): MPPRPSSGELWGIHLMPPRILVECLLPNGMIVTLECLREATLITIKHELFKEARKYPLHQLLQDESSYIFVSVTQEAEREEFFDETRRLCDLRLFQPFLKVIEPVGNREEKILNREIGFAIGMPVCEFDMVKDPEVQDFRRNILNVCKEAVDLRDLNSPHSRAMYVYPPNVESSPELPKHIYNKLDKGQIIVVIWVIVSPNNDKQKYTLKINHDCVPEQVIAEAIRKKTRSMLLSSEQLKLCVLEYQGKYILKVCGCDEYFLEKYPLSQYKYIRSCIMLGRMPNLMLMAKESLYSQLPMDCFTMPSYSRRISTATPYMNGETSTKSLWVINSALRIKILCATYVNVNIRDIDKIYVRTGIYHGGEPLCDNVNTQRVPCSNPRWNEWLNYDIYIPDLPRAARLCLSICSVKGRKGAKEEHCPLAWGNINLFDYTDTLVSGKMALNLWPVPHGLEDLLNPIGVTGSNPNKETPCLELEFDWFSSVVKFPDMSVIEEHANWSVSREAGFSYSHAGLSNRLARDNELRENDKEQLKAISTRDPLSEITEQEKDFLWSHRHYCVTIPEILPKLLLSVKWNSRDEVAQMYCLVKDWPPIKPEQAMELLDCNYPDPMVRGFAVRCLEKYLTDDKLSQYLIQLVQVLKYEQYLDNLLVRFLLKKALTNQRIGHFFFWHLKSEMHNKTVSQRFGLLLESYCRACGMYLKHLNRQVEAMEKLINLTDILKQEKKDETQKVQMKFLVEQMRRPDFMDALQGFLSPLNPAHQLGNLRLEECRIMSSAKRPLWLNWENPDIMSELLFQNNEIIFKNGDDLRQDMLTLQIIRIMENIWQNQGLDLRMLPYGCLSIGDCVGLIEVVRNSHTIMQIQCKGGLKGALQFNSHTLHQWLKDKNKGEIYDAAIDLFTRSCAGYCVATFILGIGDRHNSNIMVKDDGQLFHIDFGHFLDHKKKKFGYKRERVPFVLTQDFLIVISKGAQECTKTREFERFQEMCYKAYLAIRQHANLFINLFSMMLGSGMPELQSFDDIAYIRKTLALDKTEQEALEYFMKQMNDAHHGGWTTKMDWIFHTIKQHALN
Chain of PI3Ka (P27986 whole entry partner): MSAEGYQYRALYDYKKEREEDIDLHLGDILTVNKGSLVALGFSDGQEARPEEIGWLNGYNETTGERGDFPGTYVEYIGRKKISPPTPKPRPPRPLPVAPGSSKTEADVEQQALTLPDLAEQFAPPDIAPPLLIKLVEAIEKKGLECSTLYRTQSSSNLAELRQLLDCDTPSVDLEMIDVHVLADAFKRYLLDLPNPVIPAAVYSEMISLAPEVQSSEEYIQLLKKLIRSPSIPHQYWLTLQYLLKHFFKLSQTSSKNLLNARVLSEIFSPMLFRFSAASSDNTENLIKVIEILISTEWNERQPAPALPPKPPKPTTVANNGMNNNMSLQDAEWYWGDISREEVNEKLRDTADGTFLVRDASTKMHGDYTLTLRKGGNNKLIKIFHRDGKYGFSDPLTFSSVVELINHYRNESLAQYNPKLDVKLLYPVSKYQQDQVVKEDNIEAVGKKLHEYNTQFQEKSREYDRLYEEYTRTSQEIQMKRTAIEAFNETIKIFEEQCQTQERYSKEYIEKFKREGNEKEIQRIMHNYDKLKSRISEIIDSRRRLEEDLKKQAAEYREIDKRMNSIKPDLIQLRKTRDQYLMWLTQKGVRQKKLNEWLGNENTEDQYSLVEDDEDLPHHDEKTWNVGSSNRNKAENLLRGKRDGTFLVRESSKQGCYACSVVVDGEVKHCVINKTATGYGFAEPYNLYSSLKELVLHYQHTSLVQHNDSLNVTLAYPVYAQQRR

Row | Compound | inhibition at 0.1 µM (PI3Ka) | inhibition at 0.1 µM (EGFR) | inhibition at 0.1 µM (DNA-PK) | solubility at 2 h [1] | IC50 (PI3Ka) | IC50 (DNA-PK) | IC50 (EGFR)
1 | CC(Nc1c(C#N)cnc2ccc(-c3n[nH]c4cnccc34)cc12)c1ccccc1 (stereo not shown) [Compound 125, 4-(1-phenylethylamino)-6-(1H-pyrazolo [3,4-c]pyridin-3-yl)quinoline-3-carbonitrile] | < 10% | > 90% | 10 to 80% |  |  |  | 
2 | COc1ncc(-c2ccc3ncc(C#N)c(NC(C)c4ccccc4)c3c2)cc1C#N (stereo not shown) [Compound 126, 6-(5-cyano-6-methoxy-3-pyridyl)-4-(1-phenylethylamino) quinoline-3-carbonitrile] | 10 to 80% | 10 to 80% | < 10% |  |  |  | 
3 | CC(Nc1c(C#N)cnc2ccc(-c3cccc(-c4n[nH]c(=O)o4)c3)cc12)c1ccccc1 (stereo not shown) [Compound 127, 6-[3-(2-oxo-3H-1,3,4-oxadiazol-5-yl)phenyl]-4-(1-phenylethylamino) quinoline-3-carbonitrile] | < 10% | 80 to 90% | 10 to 80% |  |  |  | 
4 | CC(Nc1c(C#N)cnc2ccc(-c3cccc(-c4nnc[nH]4)c3)cc12)c1ccccc1 (stereo not shown) [Compound 128, 4-(1-phenylethylamino)-6-[3-(4H-1,2,4-triazol-3-yl)phenyl]quinoline-3-carbonitrile] | < 10% | 80 to 90% | < 10% |  |  |  | 
5 | CC(Nc1c(C#N)cnc2ccc(-c3cncc(-c4n[nH]c(=O)o4)c3)cc12)c1ccccc1 (stereo not shown) [Compound 129, 6-[5-(2-oxo-3H-1,3,4-oxadiazol-5-yl)-3-pyridyl]-4-(1-phenylethylamino) quinoline-3-carbonitrile] | 10 to 80% | 80 to 90% | 80 to 90% | ≤ 20 µM | 0.02 to 0.2 µM | 0.002 to 0.02 µM | 0.002 to 0.02 µM
6 | CC(Nc1c(C#N)cnc2ccc(-c3cc(F)c(O)c(F)c3)cc12)c1ccccc1 (stereo not shown) [Compound 130, 6-(3,5-difluoro-4-hydroxy-phenyl)-4-(1-phenylethylamino) quinoline-3-carbonitrile] | < 10% | 10 to 80% | < 10% |  |  |  | 
7 | CC(Nc1c(C#N)cnc2ccc(-c3cc(Cl)c(O)c(Cl)c3)cc12)c1ccccc1 (stereo not shown) [Compound 131, 6-(3,5-dichloro-4-hydroxy-phenyl)-4-(1-phenylethylamino) quinoline-3-carbonitrile] | < 10% | 10 to 80% | < 10% |  |  |  | 
8 | C[C@@H](Nc1ncnc2ccc(-c3cncc(C(=O)NC#N)c3)cc12)c1ccccc1 [Compound 133, (R)-N-cyano-5-(4-((1-phenylethyl)amino)quinazolin-6-yl)nicotinamide] | < 10% | < 10% | < 10% |  |  |  | 
9 | C[C@@H](Nc1ncnc2ccc(-c3ccc4c(c3)C(=O)OC4)cc12)c1ccccc1 [Compound 136, 6-[4-[[(1R)-1-phenylethyl]amino]quinazolin-6-yl]-3H-isobenzofuran-1-one] | < 10% | > 90% | < 10% |  |  |  | 
10 | C[C@@H](Nc1ncnc2ccc(-c3cccc(-c4nnc[nH]4)c3)cc12)c1ccccc1 [Compound 137, N-[(1R)-1-phenylethyl]-6-[3-(4H-1,2,4-triazol-3-yl)phenyl]quinazolin-4-amine] | 10 to 80% | > 90% | < 10% |  |  |  | 

Next, values leading:

Row | inhibition at 0.1 µM (PI3Ka) | inhibition at 0.1 µM (EGFR) | inhibition at 0.1 µM (DNA-PK) | solubility at 2 h [1] | IC50 (PI3Ka) | IC50 (DNA-PK) | IC50 (EGFR) | Compound
11 | 10 to 80% | 80 to 90% | 10 to 80% | 20 to 100 µM (≈ 6.85 to 34.2 µg/mL) |  |  |  | CC(Nc1ncnc2ccc(-c3cnc(N)nc3)cc12)c1ccccc1 (stereo not shown) [Compound 7, 6-(2-aminopyrimidin-5-yl)-N-(1-phenylethyl)quinazolin-4-amine]
12 | 10 to 80% |  | 10 to 80% | 20 to 100 µM (≈ 7.73 to 38.6 µg/mL) | 0.02 to 0.2 µM | > 0.2 µM |  | COc1cc(-c2ccc3ncnc(NC(C)c4ccccc4)c3c2)cnc1OC (stereo not shown) [Compound 22, 6-(5,6-dimethoxy-3-pyridyl)-N-(1-phenylethyl) quinazolin-4-amine]
13 | < 10% | 10 to 80% | < 10% |  |  |  |  | COc1ncc(-c2ccc3ncnc(N[C@H](C)c4ccccc4)c3c2)cc1C#N [Compound 132, 2-methoxy-5-[4-[[(1R)-1-phenylethyl]amino]quinazolin-6-yl]pyridine-3-carbonitrile]
14 | < 10% | > 90% | < 10% |  |  |  |  | C[C@@H](Nc1ncnc2ccc(-c3cncc(C(=O)N(C)O)c3)cc12)c1ccccc1 [Compound 134, (R)-N-hydroxy-N-methyl-5-(4-((1-phenylethyl)amino)quinazolin-6-yl)nicotinamide]
15 | < 10% | > 90% | < 10% |  |  |  |  | COC(=O)c1cncc(-c2ccc3ncnc(N[C@H](C)c4ccccc4)c3c2)c1 [Compound 135, methyl 5-[4-[[(1R)-1-phenylethyl]amino]quinazolin-6-yl]pyridine-3-carboxylate]
16 | < 10% | > 90% | 10 to 80% |  |  |  |  | C[C@@H](Nc1ncnc2ccc(-c3cncc(-c4nnc[nH]4)c3)cc12)c1ccccc1 [Compound 138, (R)-6-(5-(4H-1,2,4-triazol-3-yl)pyridin-3-yl)-N-(1-phenylethyl)quinazolin-4-amine]
17 | 10 to 80% | 10 to 80% | < 10% |  |  |  |  | CC(Nc1ncnc2ccc(-c3cnc4cnccn34)cc12)c1ccccc1 (stereo not shown) [Compound 139, 6-imidazo[1,2-a]pyrazin-3-yl-N-(1-phenylethyl)quinazolin-4-amine]
18 | < 10% | 10 to 80% | < 10% |  |  |  |  | OCC(Nc1ncnc2ccc(-c3cnc4cnccn34)cc12)c1ccccc1 (stereo not shown) [Compound 140, 2-[(6-imidazo[1,2-a]pyrazin-3-ylquinazolin-4-yl)amino]-2-phenyl-ethanol]
